Like-named read-outs stand apart in the source and are kept apart here.
Experiments:
DU145 = DU145 scattering inhibition (HGF dependent scattering); assay type: cell-based; details: Homo sapiens, DU-145, Table 31, read-out: DU145 scattering inhib IC50
Description: (§1) HGF has well known activity in terms of inducing scattering and migration (wound healing) (Wells et al., Cell Motil Cytoskeleton. 2005 November 62(3):180-94; Miura et al., Urology 2001 December 58(6):1064-9; Nishimura et al., Int J. Urol. 1998 May 5(3):276-81; Wang et al., Mol Cancer Ther. 2003 November; 2(11):1085-92; and Christensen et al., Cancer Res. 2003 Nov. 1; 63(21):7345-55).

[1] = target: T1, recombinant human c-Met/HGF receptor (Homo sapiens, UniProt P08581); experiment: In vitro receptor tyrosine kinase assay (DELFIA), c-Met/HGF receptor; assay type: biochemical; details: ATP 10 uM, enzyme 25 nM
T1 construct: His tag (histidine tag from pBlueBacHis2A); made in house; host or cells: Hi-5 cells (Trichoplusia ni), recombinant baculovirus
T1 sequence (P08581 1078-1337): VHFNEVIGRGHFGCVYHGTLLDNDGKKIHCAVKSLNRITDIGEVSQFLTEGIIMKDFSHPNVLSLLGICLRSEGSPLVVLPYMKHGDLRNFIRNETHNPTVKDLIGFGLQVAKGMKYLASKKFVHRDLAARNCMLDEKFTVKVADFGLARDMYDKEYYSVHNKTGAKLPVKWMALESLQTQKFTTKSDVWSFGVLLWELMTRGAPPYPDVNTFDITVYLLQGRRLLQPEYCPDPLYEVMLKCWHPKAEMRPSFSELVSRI

A549 = A549 wound healing inhibition (HGF dependent migration); assay type: cell-based; details: Homo sapiens, Table 31, read-out: A549 wound healing inbib IC50
Description: as §1

VEGF receptor KDR = target: T2, VEGF receptor KDR (Homo sapiens, UniProt P35968); experiment: In vitro receptor tyrosine kinase assay (DELFIA), VEGF receptor KDR; assay type: biochemical; details: ATP 0.6 uM, enzyme 5 nM
T2 construct: made in house; host or cells: Sf9 cells (Spodoptera frugiperda), recombinant baculovirus
T2 sequence (P35968 806-1356): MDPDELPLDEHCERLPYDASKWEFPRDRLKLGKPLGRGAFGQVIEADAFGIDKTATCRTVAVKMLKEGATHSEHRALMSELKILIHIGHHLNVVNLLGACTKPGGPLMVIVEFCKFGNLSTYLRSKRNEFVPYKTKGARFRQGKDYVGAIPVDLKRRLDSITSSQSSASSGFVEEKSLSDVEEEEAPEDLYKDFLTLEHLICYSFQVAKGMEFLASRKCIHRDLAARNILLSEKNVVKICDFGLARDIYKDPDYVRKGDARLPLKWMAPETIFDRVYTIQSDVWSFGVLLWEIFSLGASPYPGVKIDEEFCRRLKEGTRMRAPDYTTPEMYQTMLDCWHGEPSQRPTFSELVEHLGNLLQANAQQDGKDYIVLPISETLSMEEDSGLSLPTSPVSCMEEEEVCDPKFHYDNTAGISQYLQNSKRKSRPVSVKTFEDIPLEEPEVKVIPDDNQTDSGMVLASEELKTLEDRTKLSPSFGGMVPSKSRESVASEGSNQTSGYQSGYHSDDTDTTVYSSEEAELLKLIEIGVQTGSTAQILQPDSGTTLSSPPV
Description: In Vitro Receptor Tyrosine Kinase Assays (c-Met/HGF receptor and VEGF Receptor KDR)
In the case of VEGF receptor KDR a 1.6-kb cDNA corresponding to the catalytic domain of VEGFR2 or KDR (Genbank accession number AF035121 amino acid 806 to 1356) was cloned into the Pst I site of the pDEST20 Gateway vector (Invitrogen) for the production of a GST-tagged version of that enzyme.
The GST-VEGFR2806-1356 protein was expressed in Sf9 cells (Spodoptera frugiperda) upon infection with recombinant baculovirus construct.
The supernatant was loaded onto a GST-agarose column (Sigma) equilibrated with PBS pH 7.3. Following a four column volume (CV) wash with PBS pH 7.3+1% Triton X-100 and 4 CV wash with buffer B (50 mM Tris pH 8.0, 20% glycerol and 100 mM NaCl), bound proteins were step eluted with 5 CV of buffer B supplemented with 5 mM DTT and 15 mM glutathion. […] Final GST-VEGFR2806-1356 protein preparations concentrations were about 0.7 mg/ml with purity approximating 70%.

[2] = Table 30, read-out: C-Met (enz.) (IC50)
[3] = Table 30, read-out: VEGF(enz.) (IC50)

Row | Structure (SMILES) | IC50 (DU145) | IC50 ([1]; Table 31, read-out: CMet ic50) | IC50 (A549) | IC50 (VEGF receptor KDR; Table 31, read-out: VEGFR IC50) | IC50 [1, 2] | IC50 (VEGF receptor KDR; [3])
1 | O=C(Cc1ccc(F)cc1)NC(=S)Nc1ccc(Oc2ccnc3cc(-c4cccc[n+]4[O-])sc23)c(F)c1 | < 1 µM | < 0.05 µM | < 1 µM | < 0.05 µM |  | 
2 | C#Cc1cc(F)ccc1CC(=O)NC(=S)Nc1ccc(Oc2ccnc3cc(-c4cn(CCN5CCCC5)cn4)sc23)c(F)c1 | < 1 µM | < 0.05 µM | < 1 µM | < 0.05 µM |  | 
3 | C#Cc1cc(F)ccc1CC(=O)NC(=S)Nc1ccc(Oc2ccnc3cc(-c4cn(C)cn4)sc23)c(F)c1 | < 1 µM | < 0.05 µM | < 1 µM | < 0.05 µM |  | 
4 | CC(C(=O)NC(=S)Nc1ccc(Oc2ccnc3cc(-c4nccn4C)sc23)c(F)c1)c1ccccc1 (centres unmarked) | < 1 µM | 0.05 to 0.25 µM | < 1 µM | 0.05 to 0.25 µM |  | 
5 | CCn1cc(-c2cc3nccc(Oc4ccc(NC(=S)NC(=O)Cc5ccccc5)cc4F)c3s2)nn1 | < 1 µM | < 0.05 µM | < 1 µM | 0.25 to 0.5 µM |  | 
6 | C#Cc1ccccc1CC(=O)NC(=S)Nc1ccc(Oc2ccnc3cc(-c4cn(CC)cn4)sc23)c(F)c1 [drawing 455] | < 1 µM | < 0.05 µM | < 1 µM | < 0.05 µM |  | 
7 | CON(C)C(=O)c1cc2ncnc(Oc3ccc(NC(=S)NC(=O)Cc4ccccc4)cc3F)c2s1 [Example 26, 1-(4-(6-(N-Methoxy-N-methylcarbamoyl)thieno [3,2-d]pyrimidin-4-yloxy)-3-fluorophenyl)-3-(2-phenylacetyl)thiourea] |  |  |  |  | 0.05 to 0.25 µM | 0.05 to 0.25 µM
8 | COCCNCc1ccc(-c2cc3nccc(Oc4ccc(NC(=S)NC(=O)Cc5ccc(F)cc5)cc4F)c3s2)c(F)c1 | < 1 µM |  | < 1 µM |  |  | 
9 | O=C(Cc1ccccc1)NC(=S)Nc1ccc(Oc2ccnc3cc(-c4ncccn4)sc23)c(F)c1 [Example 14, N-(3-Fluoro-4-(2-(pyrimidin-2-yl)thieno[3,2-b]pyridin-7-yloxy)phenylcarbamothioyl)-2-phenylacetamide] |  |  |  |  |  | 0.05 to 0.25 µM
10 | O=C(Cc1ccccc1)NC(=S)Nc1ccc(Oc2ccnc3ccsc23)c(F)c1 [Example 133, N-(3-Fluoro-4-(thieno[3,2-b]pyridin-7-yloxy)phenylcarbamothioyl)-2-phenylacetamide] |  |  |  |  |  | 0.05 to 0.25 µM
11 | Cc1ccccc1CC(=O)NC(=S)Nc1ccc(Oc2ccnc3cc(-c4cn(C)cn4)sc23)c(F)c1 |  | < 0.05 µM | < 1 µM | < 0.05 µM |  | 
12 | NC(=O)c1cc2nccc(Oc3ccc(NC(=S)NC(=O)Cc4ccccc4)cc3F)c2s1 [Example 9, 1-(4-(2-carbamoylthieno[3,2-b]pyridin-7-yloxy)-3-fluorophenyl)-3-(2-phenylacetyl)thiourea] |  |  |  |  |  | 0.05 to 0.25 µM
13 | CNC(=O)c1cc2nccc(Oc3ccc(NC(=S)NC(=O)Cc4ccccc4)cc3F)c2s1 [Example 5, 1-(4-(2-(methylcarbamoyl)thieno[3,2-b]pyridin-7-yloxy)-3-fluorophenyl)-3-(2-phenylacetyl)thiourea] |  |  |  |  |  | 0.05 to 0.25 µM
14 | O=C(Cc1ccccc1)NC(=S)Nc1ccc(Oc2ccnc3cc(-c4cccnc4)sc23)c(F)c1 [Example 18] |  |  |  |  |  | 0.05 to 0.25 µM
15 | CN(CCO)Cc1ccc(-c2cc3nccc(Oc4ccc(NC(=S)NC(=O)Cc5ccc(F)cc5)cc4F)c3s2)nc1 | < 1 µM | < 0.05 µM |  | < 0.05 µM |  | 
16 | COCCN(CCOC)Cc1cccc(-c2cc3nccc(Oc4ccc(NC(=S)NC(=O)Cc5ccc(F)cc5)cc4F)c3s2)c1 | < 1 µM | < 0.05 µM | < 1 µM |  |  | 
17 | CCn1cncc1-c1cc2nccc(Oc3ccc(NC(=S)NC(=O)Cc4ccccc4OC)cc3F)c2s1 | < 1 µM | < 0.05 µM | 1 to 5 µM |  |  | 
18 | CCCNCc1ccc(-c2cc3nccc(Oc4ccc(NC(=S)NC(=O)Cc5ccc(F)cc5)cc4F)c3s2)cc1 | < 1 µM |  | < 1 µM |  |  | 
19 | CCn1ccc2ncnc(Oc3ccc(NC(=S)NC(=O)Cc4ccccc4)cc3F)c21 [Example 29, 1-(4-(5-Ethyl-5H-pyrrolo[3,2-d]pyrimidin-4-yloxy)-3-fluorophenyl)-3-(2-phenylacetyl)thiourea] |  |  |  |  | 0.25 to 0.5 µM | > 0.5 µM
20 | O=C(Cc1ccccc1)NC(=S)Nc1ccc(Oc2ccnc3ccsc23)cc1 [Example 188, 2-Phenyl-N-(4-(thieno[3,2-b]pyridin-7-yloxy)phenylcarbamothioyl)acetamide] |  |  |  |  |  | > 0.5 µM

Source: patent US20100249145A1, “Inhibitors of VEGF Receptor and HGF Receptor Signaling” (Methylgene, Inc., priority 2005, published 2010)
